Measured values reported in PMC13672995, “NCR13 peptide protects soybean against Cercospora sojina using multi-faceted modes of action and additive interaction with chemical fungicides” (Journal of Experimental Botany, 2025).
Converted amounts (≈) assume the structure as drawn. Where two headings read alike, the source gives them in different places. Where a SMILES comes first, the peptide text is derived from it.

How the values were obtained:
[1] = test system: C. sojina QoI fungicide-sensitive isolate Cs320; assay: microbe, parasite or virus in culture; format: cell-based, Cercospora sojina; settings: for MIC: Cercospora sojina, read-out: MIC (µM) against Fungicide sensitive C. sojina isolate (Cs320); for MIC / MIC (μM) against C. sojina isolates, Fungicide sensitive, Cs320: 48 h; for MIC (µM) against Fungicide sensitive C. sojina isolate (Cs320): QoI fungicides, determined in 2 days, 0.02 µM lowest concentration tested
Experimental: (§1) In vitro antifungal activity of AFPs and QoI fungicides was determined using 96-well plate assays as described ([Velivelli et al., 2020]) with slight modifications. Briefly, 2- to 3-week-old C. sojina was used to make a conidial suspension in 2× SFM at the final concentration of ∼10^5 conidia ml^−1. Simultaneously, peptide dilutions (in water) at various concentrations were made. Fungicides were dissolved in 50% acetone and 50% water to make a stock solution of 500 µM, and serial dilutions were made in water as needed. The peptide–conidia or the fungicide–conidia mixture at the ratio of 1:1 (45 µl:45 µl) was added in a 96-well plate and incubated at room temperature for 48 h, after which MICs of the peptides/fungicides were calculated based on microscopy as well as the resazurin cell viability assay ([Velivelli et al., 2020]).

[2] = test system: C. sojina Cs350 (fungicide resistant); assay: Peptide-fungicide checkerboard assay; format: cell-based, Cercospora sojina; settings: for MIC: Cercospora sojina, SHAM 60 µg ml–1, microscopy, read-out: Individual MIC; for MIC / interaction with NCR13_PFV1 by FIC index: 96 h; for MIC / FIC score: Cs350, 4 d; for interaction with NCR13_PFV1 by FIC index: Cs350, in vitro
Experimental: Synergy between NCR13_PFV1 and the widely used QoI foliar fungicides, azoxystrobin (Sigma-Aldrich, Cat No: 31697), trifloxystrobin (Sigma-Aldrich, Cat No: 46447), and pyraclostrobin (Sigma-Aldrich, Cat No: 33696), were evaluated using checkerboard assays. This assay was performed in a 96-well plate and the preparation of conidial suspension, peptide dilutions, and fungicide dilutions were similar to the in vitro antifungal activity assay described above. The presence of an alternative respiration pathway allows some fungi including C. sojina to germinate even in the presence of a high dose of QoI fungicides in vitro ([Ziogas et al., 1997]; [Zhang et al., 2012]). Therefore, to prevent alternative respiration in C. sojina, salicylhydroxamic acid (SHAM) was added in each reaction at the final concentration of 60 µg ml^–1 ([Zhang et al., 2012]). The conidia, peptide, fungicide, and SHAM were added in a 96-well plate at the v/v ratio of 4:1:1:2 (50 µl:12.5 µl:12.5 µl:25 µl) in the final reaction volume of 100 µl, and the plate was incubated at room temperature for 96 h (4 d). After 96 h, MIC values of the peptide–fungicide combination, peptide alone, and fungicide alone were calculated based on microscopy as well as the resazurin cell viability assay. The fractional inhibitory concentration (FIC) index was calculated using the formula FIC = (MICA+B/MICA) + (MICB+A/MICB), where MICA and MICB are the MIC for peptide (A) alone and fungicide (B) alone, respectively, MICA+B is the MIC for peptide in combination with fungicide (A+B), and MICB+A is the MIC for fungicide in combination with peptide (B+A). The FIC index was interpreted as: synergistic, ≤0.5; additive, >0.5–1.0; indifferent, >1 to <4.0; or antagonistic, ≥4.0.

[3] = Heme-peptide binding assay (colour change); settings: equimolar heme and peptide, 100 µM, 1 h, room temperature
Experimental: Heme solutions were freshly prepared by dissolving hemin chloride (Sigma Cat No: 3741) in 0.1 M NaOH and used within an hour after preparation. Two heme-sequestering peptides, NCR247 and NCR455 ([Montiel et al., 2017]; [Sankari et al., 2022]), were used as positive controls, and water-only treatment as a negative control. The equimolar concentration of heme and peptide (100 µM) or water were mixed and incubated at room temperature for 1 h. When dissolved in NaOH, heme is light to dark brown in color; however, when it binds to a peptide, the color changes to reddish-brown as described by [Sankari et al. (2022)]. The change in color of heme to reddish-brown indicated the heme binding ability of the peptide.

[4] = Peroxidase assay (TMB substrate); format: biochemical; settings: heme 5 µM, peptide 5 µM, absorption at 370 nm and 652 nm
Experimental: A Pierce TMB substrate kit (Thermo Scientific) was used to measure the peroxidase activity of heme. In a transparent 96-well plate, 50 µl of TMB substrate and 50 µl of […] were added followed by addition of heme (5 µM) or peptides plus heme (5 µM each). The reaction progression was measured in the Tecan plate reader, by recording UV-vis absorption values at 370 nm and 652 nm for every minute up to 1 h.

[5] = test system: C. sojina QoI fungicide-resistant isolate Cs350; format: cell-based, Cercospora sojina; settings: for MIC (μM) against C. sojina, Fungicide resistant, Cs350: 48 h; for fold increase of MIC with increasing iron concentration: FeSO4 in SFM
Experimental: as §1

[6] = pair pyraclostrobin / NCR13_PFV1

COC(=O)N(OC)c1ccccc1COc1ccn(-c2ccc(Cl)cc2)n1 [Pyraclostrobin, pyraclostrobin]
MIC [1]: < 0.02 µM | MIC (µM) against Fungicide sensitive C. sojina isolate (Cs320) [1]: <0.02 µM | MIC [2, 6]: 24 µM | interaction with NCR13_PFV1 by FIC index [2]: additive (additive, >0.5–1.0) | FIC score [2, 6]: ≤ 1

RNGCIVDPRCPYQQCRRPLYCRRR [NCR247, reference compound]
heme binding (colour change of heme from brown to reddish-brown) [3]: visible color change of heme from brown to reddish-brown | peroxidase activity of heme and FeSO4 in the presence of peptide [4]: reduced or stopped

CC[C@H](C)[C@H](NC(=O)[C@H](CCCNC(=N)N)NC(=O)[C@H](CS)NC(=O)[C@H](CCCNC(=N)N)NC(=O)CNC(=O)[C@@H](N)CO)C(=O)N[C@@H](CC(C)C)C(=O)N[C@@H](Cc1ccccc1)C(=O)N[C@@H](CCCNC(=N)N)C(=O)N[C@@H](Cc1c[nH]c2ccccc12)C(=O)N[C@@H](Cc1ccc(O)cc1)C(=O)N[C@@H](Cc1ccccc1)C(=O)N[C@H](C(=O)N[C@@H](CCCCN)C(=O)N[C@@H](CC(N)=O)C(=O)N[C@@H](CS)C(=O)O)[C@@H](C)O [GMA1C_V3] (H-SGRCRILFRWYFTKNC-OH)
MIC (μM) against C. sojina, Fungicide resistant, Cs350 [5]: 6 µM (≈ 12.3 µg/mL)

CON=C(C(=O)OC)c1ccccc1CON=C(C)c1cccc(C(F)(F)F)c1 [Trifloxystrobin, trifloxystrobin]
MIC [1]: < 0.02 µM | MIC (µM) against Fungicide sensitive C. sojina isolate (Cs320) [1]: <0.02 µM | MIC ([2]; pair trifloxystrobin / NCR13_PFV1, highest fungicide concentration 48 µM): > 48 µM | interaction with NCR13_PFV1 by FIC index [2]: additive (additive, >0.5–1.0) | FIC score ([2]; pair trifloxystrobin / NCR13_PFV1): ≤ 1

C[C@H](NC(=O)CN)C(=O)N[C@@H](CS)C(=O)N[C@@H](Cc1c[nH]cn1)C(=O)N[C@@H](CCCNC(=N)N)C(=O)N[C@@H](CCC(N)=O)C(=O)NCC(=O)N[C@@H](Cc1ccccc1)C(=O)NCC(=O)N[C@@H](Cc1ccccc1)C(=O)N[C@@H](C)C(=O)N[C@@H](Cc1ccccc1)C(=O)N[C@@H](Cc1ccccc1)C(=O)N[C@@H](Cc1ccccc1)C(=O)N[C@@H](Cc1ccc(O)cc1)C(=O)N[C@@H](CCCCN)C(=O)N[C@@H](CCCCN)C(=O)N[C@@H](CS)C(=O)O [GMA5AC_V2] (H-GACHRQGFGFAFFFYKKC-OH; N-terminus and C-terminus assumed)
MIC (μM) against C. sojina, Fungicide resistant, Cs350 [5]: 6 µM (≈ 12.7 µg/mL)

CC[C@H](C)[C@H](NC(=O)[C@H](CCCNC(=N)N)NC(=O)[C@@H](NC(=O)[C@H](Cc1ccccc1)NC(=O)[C@H](Cc1c[nH]c2ccccc12)NC(=O)[C@H](Cc1ccccc1)NC(=O)[C@H](CCCNC(=N)N)NC(=O)[C@H](CCCNC(=N)N)NC(=O)[C@H](CC(C)C)NC(=O)[C@H](Cc1ccccc1)NC(=O)CNC(=O)[C@H](CCCCN)NC(=O)[C@H](CS)NC(=O)[C@H](CCCNC(=N)N)NC(=O)CNC(=O)CN)[C@@H](C)O)C(=O)N[C@@H](CS)C(=O)O [GMA4CG_V7] (H-GGRCKGFLRRFWFTRIC-OH)
MIC (μM) against C. sojina, Fungicide resistant, Cs350 [5]: 6 µM (≈ 12.6 µg/mL)

CC[C@H](C)[C@H](NC(=O)[C@H](CCCNC(=N)N)NC(=O)[C@H](CS)NC(=O)[C@H](CCCNC(=N)N)NC(=O)CNC(=O)[C@@H](N)CO)C(=O)N[C@@H](CC(C)C)C(=O)N[C@@H](Cc1ccccc1)C(=O)N[C@@H](CCCNC(=N)N)C(=O)N[C@@H](Cc1c[nH]c2ccccc12)C(=O)N[C@@H](Cc1ccccc1)C(=O)N[C@@H](Cc1c[nH]c2ccccc12)C(=O)N[C@H](C(=O)N[C@@H](CCCCN)C(=O)N[C@@H](CC(N)=O)C(=O)N[C@@H](CS)C(=O)O)[C@@H](C)O [GMA1C_V2] (H-SGRCRILFRWFWTKNC-OH)
MIC (μM) against C. sojina, Fungicide resistant, Cs350 [5]: 6 µM (≈ 12.4 µg/mL)

N=C(N)NCCC[C@H](NC(=O)[C@H](CS)NC(=O)[C@H](Cc1c[nH]c2ccccc12)NC(=O)[C@H](Cc1ccccc1)NC(=O)[C@H](CCCCN)NC(=O)[C@@H](N)CCCCN)C(=O)N[C@@H](CCCCN)C(=O)N1CCC[C@H]1C(=O)N[C@@H](CCCCN)C(=O)N[C@@H](Cc1c[nH]c2ccccc12)C(=O)N1CCC[C@H]1C(=O)N[C@@H](CCCCN)C(=O)N[C@@H](CS)C(=O)O [NCR13_V9] (H-KKFWCRKPKWPKC-OH; N-terminus and C-terminus assumed)
MIC (μM) against C. sojina isolates, Fungicide sensitive, Cs320 [1]: 3 µM (≈ 5.21 µg/mL) | MIC (μM) against C. sojina, Fungicide resistant, Cs350 [5]: 6 µM (≈ 10.4 µg/mL) | fold increase of MIC with increasing iron concentration [5]: 2 fold

CC(C)C[C@H](NC(=O)[C@H](CS)NC(=O)[C@H](C)NC(=O)CN)C(=O)N[C@@H](CCCCN)C(=O)N[C@@H](CC(N)=O)C(=O)N[C@@H](CCCNC(=N)N)C(=O)N[C@@H](Cc1c[nH]cn1)C(=O)N[C@@H](CO)C(=O)N[C@@H](CCCCN)C(=O)N[C@@H](Cc1c[nH]cn1)C(=O)N[C@@H](Cc1ccc(O)cc1)C(=O)NCC(=O)N[C@@H](Cc1c[nH]c2ccccc12)C(=O)N[C@@H](Cc1ccccc1)C(=O)N[C@@H](Cc1c[nH]c2ccccc12)C(=O)N[C@@H](Cc1ccc(O)cc1)C(=O)N[C@@H](Cc1ccc(O)cc1)C(=O)N[C@@H](CCCNC(=N)N)C(=O)N[C@@H](Cc1c[nH]cn1)C(=O)N[C@@H](CS)C(=O)N[C@@H](Cc1ccc(O)cc1)C(=O)O [GMAOe1C_V1] (H-GACLKNRHSKHYGWFWYYRHCY-OH; N-terminus and C-terminus assumed)
MIC (μM) against C. sojina, Fungicide resistant, Cs350 [5]: 3 to 6 µM

CC[C@H](C)[C@H](NC(=O)[C@H](CCCNC(=N)N)NC(=O)[C@@H](NC(=O)[C@H](Cc1c[nH]c2ccccc12)NC(=O)[C@H](Cc1ccc(O)cc1)NC(=O)[C@H](Cc1c[nH]c2ccccc12)NC(=O)[C@H](CCCNC(=N)N)NC(=O)[C@H](CCCNC(=N)N)NC(=O)[C@H](CC(C)C)NC(=O)[C@H](Cc1ccccc1)NC(=O)CNC(=O)[C@H](CCCCN)NC(=O)[C@H](CS)NC(=O)[C@H](CCCNC(=N)N)NC(=O)CNC(=O)CN)[C@@H](C)O)C(=O)N[C@@H](CS)C(=O)O [GMA4CG_V8] (H-GGRCKGFLRRWYWTRIC-OH)
MIC (μM) against C. sojina, Fungicide resistant, Cs350 [5]: 6 µM (≈ 13 µg/mL)

C[C@H](NC(=O)CN)C(=O)N[C@@H](CS)C(=O)N[C@@H](Cc1c[nH]cn1)C(=O)N[C@@H](CCCNC(=N)N)C(=O)N[C@@H](CCC(N)=O)C(=O)NCC(=O)N[C@@H](Cc1ccccc1)C(=O)NCC(=O)N[C@@H](Cc1ccccc1)C(=O)N[C@@H](C)C(=O)N[C@@H](Cc1c[nH]c2ccccc12)C(=O)N[C@@H](Cc1ccccc1)C(=O)N[C@@H](Cc1c[nH]c2ccccc12)C(=O)N[C@@H](Cc1ccc(O)cc1)C(=O)N[C@@H](CCCCN)C(=O)N[C@@H](CCCCN)C(=O)N[C@@H](CS)C(=O)O [GMA5AC_V1] (H-GACHRQGFGFAWFWYKKC-OH; N-terminus and C-terminus assumed)
MIC (μM) against C. sojina, Fungicide resistant, Cs350 [5]: 6 µM (≈ 13.2 µg/mL)

CC(C)[C@H](NC(=O)[C@H](CCCCN)NC(=O)[C@@H]1CCCN1C(=O)[C@H](CCCCN)NC(=O)[C@H](CCCNC(=N)N)NC(=O)[C@H](CS)NC(=O)[C@H](C)NC(=O)[C@H](Cc1ccccc1)NC(=O)[C@H](CCCCN)NC(=O)[C@@H](N)CCCCN)C(=O)N1CCC[C@H]1C(=O)N[C@@H](CCCCN)C(=O)N[C@@H](CS)C(=O)O [NCR13_V7] (H-KKFACRKPKVPKC-OH; N-terminus and C-terminus assumed)
MIC (μM) against C. sojina isolates, Fungicide sensitive, Cs320 [1]: 6 µM (≈ 9.2 µg/mL) | MIC (μM) against C. sojina, Fungicide resistant, Cs350 [5]: 12 µM (≈ 18.4 µg/mL) | fold increase of MIC with increasing iron concentration [5]: 2 fold
